pIC50: −log10 of the molar value. One block for each compound: values may come before it.
Legend:
A549 [1] = assay: Antiproliferative activity against human A549 cells assessed as cell growth inhibition incubated for 72 hrs by CellTiter96 Aqueous one solution cell proliferation assay; format: functional, cell-based; settings: A549, 72 h
A549 [2] = assay: Antiproliferative activity against human A549 cells assessed as cell growth inhibition; format: functional, cell-based
HeLa [3] = assay: Antimitotic activity against human HeLa cells assessed as proportion of cells with bipolar spindles at 4 nM measured after 16 to 18 hrs by DAPI-staining based fluorescence microscopy analysis relative to control; format: functional
HeLa [4] = assay: Antimitotic activity against human HeLa cells assessed as proportion of cells with bipolar spindles at 8 nM measured after 16 to 18 hrs by DAPI-staining based fluorescence microscopy analysis relative to control; format: functional
HeLa [5] = assay: Antimitotic activity against human HeLa cells assessed as proportion of cells with bipolar spindles at 12 nM measured after 16 to 18 hrs by DAPI-staining based fluorescence microscopy analysis relative to control; format: functional
HeLa [6] = assay: Antimitotic activity against human HeLa cells assessed as proportion of cells with bipolar spindles at 16 nM measured after 16 to 18 hrs by DAPI-staining based fluorescence microscopy analysis relative to control; format: functional
HeLa [7] = assay: Antimitotic activity against human HeLa cells assessed as proportion of cells with irregular spindles at 4 nM measured after 16 to 18 hrs by DAPI-staining based fluorescence microscopy analysis relative to control; format: functional
HeLa [8] = assay: Antimitotic activity against human HeLa cells assessed as proportion of cells with irregular spindles at 8 nM measured after 16 to 18 hrs by DAPI-staining based fluorescence microscopy analysis relative to control; format: functional
HeLa [9] = assay: Antimitotic activity against human HeLa cells assessed as proportion of cells with irregular spindles at 12 nM measured after 16 to 18 hrs by DAPI-staining based fluorescence microscopy analysis relative to control; format: functional
HeLa [10] = assay: Antimitotic activity against human HeLa cells assessed as proportion of cells with irregular spindles at 16 nM measured after 16 to 18 hrs by DAPI-staining based fluorescence microscopy analysis relative to control; format: functional
HeLa [11] = assay: (§1) Antimitotic activity against human HeLa cells assessed as proportion of cells with microtubule disruption around the condensed chromosomes and unseparated centrosome at 4 nM measured after 16 to 18 hrs by anti-alpha-tubulin/anti-gamma-tubulin antibodies based immunostaining/DAPI-staining based fluorescence microscopy analysis relative to control; format: functional
HeLa [12] = assay: as §1, with “8” for “4”; format: functional
HeLa [13] = assay: as §1, with “12” for “4”; format: functional
HeLa [14] = assay: as §1, with “16” for “4”; format: functional
HeLa [15] = assay: Antimitotic activity against human HeLa cells assessed as proportion of cells with diffuse alpha-tubulin at 4 nM measured after 16 to 18 hrs by DAPI-staining based fluorescence microscopy analysis relative to control; format: functional
HeLa [16] = assay: Antimitotic activity against human HeLa cells assessed as proportion of cells with diffuse alpha-tubulin at 8 nM measured after 16 to 18 hrs by DAPI-staining based fluorescence microscopy analysis relative to control; format: functional
HeLa [17] = assay: Antimitotic activity against human HeLa cells assessed as proportion of cells with diffuse alpha-tubulin at 12 nM measured after 16 to 18 hrs by DAPI-staining based fluorescence microscopy analysis relative to control; format: functional
HeLa [18] = assay: Antimitotic activity against human HeLa cells assessed as proportion of cells with diffuse alpha-tubulin at 16 nM measured after 16 to 18 hrs by DAPI-staining based fluorescence microscopy analysis relative to control; format: functional
HeLa [19] = assay: Antimitotic activity against human HeLa cells assessed as proportion of mitotic cells at 4 nM measured after 16 to 18 hrs by DAPI-staining based fluorescence microscopy analysis relative to control; format: functional
HeLa [20] = assay: Antimitotic activity against human HeLa cells assessed as proportion of mitotic cells at 8 nM measured after 16 to 18 hrs by DAPI-staining based fluorescence microscopy analysis relative to control; format: functional
HeLa [21] = assay: Antimitotic activity against human HeLa cells assessed as proportion of mitotic cells at 12 nM measured after 16 to 18 hrs by DAPI-staining based fluorescence microscopy analysis relative to control; format: functional
HeLa [22] = assay: Antimitotic activity against human HeLa cells assessed as proportion of mitotic cells at 16 nM measured after 16 to 18 hrs by DAPI-staining based fluorescence microscopy analysis relative to control; format: functional
HCT-116 [23] = assay: Antitumor activity against human HCT116 cells xenografted in BALB/c nude mouse assessed as tumor growth inhibition at 10 mg/kg, iv qd administered on day 1,3,5,8,10,12,15,17,19 and measured on day 22 by caliper method relative to control; format: functional; settings: HCT-116, iv, read-out: TGI
HCT-116 [24] = assay: Antitumor activity against human HCT116 cells xenografted in BALB/c nude mouse assessed as tumor growth inhibition at 20 mg/kg, iv qd administered on day 1,3,5,8,10,12,15,17,19 and measured on day 22 by caliper method relative to control; format: functional; settings: HCT-116, iv, read-out: TGI
HCT-116 [25] = assay: Antitumor activity against human HCT116 cells xenografted in iv dosed BALB/c nude mouse assessed as tumor growth inhibition administered once daily on day 1,3,5,8,10,12,15,17,19 and measured on day 22 by caliper method; format: functional, organism-based
HCT-116 [26] = assay: Antiproliferative activity against human HCT116 cells assessed as cell growth inhibition incubated for 72 hrs by CellTiter96 Aqueous one solution cell proliferation assay; format: functional, cell-based; settings: HCT-116, 72 h

SMILES: COC(=O)Nc1nc2cc(C(=O)c3cccs3)ccc2[nH]1 [NOCODAZOLE]
pIC50 (A549 [1]): 6.57

SMILES: COc1ccc(C(C)(O)c2ncnc3ccc(F)cc23)cc1 (centres undefined)
pIC50 (A549 [1]): 6.46

SMILES: CC[C@]1(O)C[C@@H]2CN(CCc3c([nH]c4ccccc34)[C@@](C(=O)OC)(c3cc4c(cc3OC)N(C)[C@H]3[C@@](O)(C(=O)OC)[C@H](OC(C)=O)[C@]5(CC)C=CCN6CC[C@]43[C@@H]65)C2)C1 [VINBLASTINE]
pIC50 (A549 [1]): 7.68

SMILES: COc1ccc(C(C)(O)c2ncnc3c(F)cccc23)cc1 (centres undefined)
pIC50 (A549 [1]): 6.37

SMILES: COc1ccc(C(C)(O)c2ncnc3cc(Cl)ccc23)cc1 (centres undefined)
pIC50 (A549 [1]): 6.06

SMILES: COc1ccc(C(C)(O)c2ncnc3c(C)cccc23)cc1 (centres undefined)
pIC50 (A549 [1]): 5.81

SMILES: COc1ccc(C(C)(O)c2ncnc3cc(C)ccc23)cc1 (centres undefined)
pIC50 (A549 [1]): < 4.60

SMILES: COc1ccc(C(C)(O)c2ncnc3cc(OC)ccc23)cc1 (centres undefined)
pIC50 (A549 [1]): < 4.60

SMILES: COc1ccc(C(C)(O)c2ncnc3c(OC)cccc23)cc1 (centres undefined)
pIC50 (A549 [1]): 5.68

SMILES: COc1ccc(C(C)(O)c2nc(-c3ccc4c(c3)OCO4)nc3ccccc23)cc1 (centres undefined)
pIC50 (A549 [1]): 5.93

SMILES: COc1ccc(C(C)(O)c2nc(-c3ccsc3C(C)=O)nc3ccccc23)cc1 (centres undefined)
pIC50 (A549 [1]): 7.28

SMILES: COc1ccc(C(C)(O)c2nc(-c3c(C)noc3C)nc3ccccc23)cc1 (centres undefined)
pIC50 (A549 [1]): 7.23

SMILES: COc1ccc(C(C)(O)c2nc(-c3ccc(C#N)s3)nc3ccccc23)cc1 (centres undefined)
pIC50 (A549 [1]): 7.89

SMILES: COc1ccc(C(C)(O)c2ncnc3c(Cl)cccc23)cc1 (centres undefined)
pIC50 (A549 [1]): 6.62

SMILES: COc1ccc(C(C)(O)c2ncnc3cccc(F)c23)cc1 (centres undefined)
pIC50 (A549 [1]): 4.92

SMILES: COc1ccc(C(C)(O)c2nc(N3CC3)nc3ccccc23)cc1 (centres undefined)
pIC50 (A549 [1]): 6.66

SMILES: COc1ccc(C(C)(O)c2ncnc3ccc(C)cc23)cc1 (centres undefined)
pIC50 (A549 [1]): 5.96

SMILES: COc1ccc(C(C)(O)c2ncnc3cc(F)ccc23)cc1 (centres undefined)
pIC50 (A549 [1]): 5.33

SMILES: COc1ccc(C(C)(O)c2nc(-c3ccc(C(F)(F)F)cc3)nc3ccccc23)cc1 (centres undefined)
pIC50 (A549 [1]): 5.80

SMILES: COc1ccc(C(C)(O)c2ncnc3ccc(Cl)cc23)cc1 (centres undefined)
pIC50 (A549 [1]): 7.10

SMILES: COc1ccc(C(C)(O)c2ncnc3ccc(OC)cc23)cc1 (centres undefined)
pIC50 (A549 [1]): 5.29

Now from value to compound, other results behind:

pIC50 (A549 [1]): 6.66
SMILES: COc1ccc(C(C)(O)c2nc(N3CC=CC3)nc3ccccc23)cc1 (centres undefined)

pIC50 (A549 [1]): 7.30
SMILES: COc1ccc(C(C)(O)c2nc(N)nc3ccccc23)cc1 (centres undefined)

pIC50 (A549 [1]): 7.57
SMILES: C=Cc1nc(C(C)(O)c2ccc(OC)cc2)c2ccccc2n1 (centres undefined)

pIC50 (A549 [1]): 7.30
SMILES: COc1ccc(C(C)(O)c2nc(-n3cccc3)nc3ccccc23)cc1 (centres undefined)

pIC50 (A549 [1]): 6.12
SMILES: COc1ccc(C(C)(O)c2nc(N3CCC(F)CC3)nc3ccccc23)cc1 (centres undefined)

pIC50 (A549 [1]): 7.32
SMILES: COc1ccc(C(C)(O)c2nc(-c3cccs3)nc3ccccc23)cc1 (centres undefined)

pIC50 (A549 [1]): 7.44
SMILES: COc1ccc(C(C)(O)c2nc(-c3ccco3)nc3ccccc23)cc1 (centres undefined)

pIC50 (A549 [1]): 7.22
SMILES: COc1ccc(C(C)(O)c2nc(-c3cccnc3)nc3ccccc23)cc1 (centres undefined)

pIC50 (A549 [1]): 5.31
SMILES: COc1ccc(C(C)(O)c2nc(N3CCC(F)(F)CC3)nc3ccccc23)cc1 (centres undefined)

pIC50 (A549 [1]): 5.03
SMILES: COc1ccc(C(C)(O)c2nc(N3CCC(O)CC3)nc3ccccc23)cc1 (centres undefined)

pIC50 (A549 [1]): 6.20
SMILES: COc1ccc(C(C)(O)c2nc(C3CC3)nc3ccccc23)cc1 (centres undefined)

pIC50 (A549 [1]): 6.42
SMILES: C/C=C\c1nc(C(C)(O)c2ccc(OC)cc2)c2ccccc2n1 (centres undefined)

pIC50 (A549 [1]): 5.44
SMILES: COc1ccc(C(C)(O)c2nc(N3CCC(Cl)CC3)nc3ccccc23)cc1 (centres undefined)

pIC50 (A549 [1]): 6.65
SMILES: COc1ccc(C(C)(O)c2nc(-c3ccccc3O)nc3ccccc23)cc1 (centres undefined)

pIC50 (A549 [1]): 6.15
SMILES: COc1ccc(C(C)(O)c2nc(N3CC=CCC3)nc3ccccc23)cc1 (centres undefined)

pIC50 (A549 [1]): 6.05
SMILES: COc1ccc(C(C)(O)c2nc(-c3ccc(Cl)s3)nc3ccccc23)cc1 (centres undefined)

pIC50 (A549 [2]): 6.85
SMILES: COc1ccc(C(C)(O)c2nc(N3CCOCC3)nc3ccccc23)cc1 (centres undefined)

pIC50 (A549 [1]): 5.85
SMILES: COc1ccc(C(C)(O)c2nc(-c3ccc(O)cc3)nc3ccccc23)cc1 (centres undefined)

pIC50 (A549 [1]): 7.32
SMILES: COc1ccc(C(C)(O)c2nc(-c3ccc(F)cc3)nc3ccccc23)cc1 (centres undefined)

pIC50 (A549 [1]): 7.30
SMILES: COc1ccc(C(C)(O)c2nc(Br)nc3ccccc23)cc1 (centres undefined)

pIC50 (A549 [1]): 7.70
SMILES: CNc1nc(C(C)(O)c2ccc(OC)cc2)c2ccccc2n1 (centres undefined)

pIC50 (A549 [1]): 5.91
SMILES: COc1ccc(C(C)(O)c2nc(N3CCC(OC)CC3)nc3ccccc23)cc1 (centres undefined)

pIC50 (A549 [1]): 6.24
SMILES: COc1ccc(C(C)(O)c2nc(N3CCSC3)nc3ccccc23)cc1 (centres undefined)

pIC50 (A549 [1]): 5.61
SMILES: COc1ccc(C(C)(O)c2nc(N3CCSCC3)nc3ccccc23)cc1 (centres undefined)

pIC50 (A549 [1]): 6.00
SMILES: COc1ccc(C(C)(O)c2nc(-c3coc(C=O)c3)nc3ccccc23)cc1 (centres undefined)

pIC50 (A549 [1]): 5.90
SMILES: COc1ccc(C(C)(O)c2nc(N3CCCC3)nc3ccccc23)cc1 (centres undefined)

pIC50 (A549 [1]): 7.89 | pIC50 (HCT-116 [26]): 7.89
SMILES: COc1ccc(C(C)(O)c2nc(-c3ccoc3)nc3ccccc23)cc1 (centres undefined)
Activity (HeLa [3]): 100% | Activity (HeLa [4]): 50% | Activity (HeLa [5]): 0% | Activity (HeLa [6]): 0% | Activity (HeLa [7]): 0% | Activity (HeLa [8]): 44.2% | Activity (HeLa [9]): 0% | Activity (HeLa [10]): 0% | Activity (HeLa [11]): 0% | Activity (HeLa [12]): 5.8% | Activity (HeLa [13]): 67% | Activity (HeLa [14]): 57% | Activity (HeLa [15]): 0% | Activity (HeLa [16]): 0% | Activity (HeLa [17]): 33% | Activity (HeLa [18]): 43% | Activity (HeLa [19]): 50% | Activity (HeLa [20]): 52% | Activity (HeLa [21]): 52% | Activity (HeLa [22]): 60% | inhibition in vivo at 10 mg/kg (HCT-116 [23]): 24.6% | inhibition in vivo at 20 mg/kg (HCT-116 [24]): 62.9% | TGI (HCT-116 [25]): Dose-dependent effect

pIC50 (A549 [1]): 5.96
SMILES: COc1ccc(C(C)(O)c2nc(N3CCC3)nc3ccccc23)cc1 (centres undefined)

pIC50 (A549 [1]): 6.60
SMILES: COc1ccc(C(C)(O)c2nc(-c3cn[nH]c3)nc3ccccc23)cc1 (centres undefined)

— ChEMBL document CHEMBL4616710, “Discovery of a Potent Anticancer Agent PVHD303 with in Vivo Activity” (ACS Med Chem Lett, 2020)
